This note sets out measurements from ChEMBL document CHEMBL1201862, “PubChem BioAssay data set” (2004).

Assay [1] concerns the target T1, DNA repair and recombination protein RAD54-like (Homo sapiens, UniProt Q92698).
T1 sequence (Q92698 whole entry): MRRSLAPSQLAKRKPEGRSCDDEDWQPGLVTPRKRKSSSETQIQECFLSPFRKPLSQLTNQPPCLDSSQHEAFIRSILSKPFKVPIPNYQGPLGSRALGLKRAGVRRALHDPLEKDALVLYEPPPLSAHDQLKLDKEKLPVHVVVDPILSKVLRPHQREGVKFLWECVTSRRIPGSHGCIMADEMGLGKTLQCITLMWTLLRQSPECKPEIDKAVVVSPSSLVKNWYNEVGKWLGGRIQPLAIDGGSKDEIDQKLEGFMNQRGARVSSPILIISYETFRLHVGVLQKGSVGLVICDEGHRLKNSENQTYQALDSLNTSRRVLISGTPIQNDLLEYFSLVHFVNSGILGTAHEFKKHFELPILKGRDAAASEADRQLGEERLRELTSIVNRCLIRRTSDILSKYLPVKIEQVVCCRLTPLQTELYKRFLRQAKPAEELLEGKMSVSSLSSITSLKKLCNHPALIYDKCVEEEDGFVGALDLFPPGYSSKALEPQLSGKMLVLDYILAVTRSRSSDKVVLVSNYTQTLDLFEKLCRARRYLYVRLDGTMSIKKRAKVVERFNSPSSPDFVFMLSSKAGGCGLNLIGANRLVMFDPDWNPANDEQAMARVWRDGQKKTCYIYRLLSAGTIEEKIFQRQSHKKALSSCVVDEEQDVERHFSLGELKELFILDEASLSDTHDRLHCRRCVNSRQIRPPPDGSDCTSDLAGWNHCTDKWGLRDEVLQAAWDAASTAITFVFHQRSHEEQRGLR
The assay can be described thus: RAD54 Holliday junction migration blockers – biochemical, fluorescence, cherry-picked samples, dose series, confirmation (AID 651657). In kind it is functional.

Assay [2] concerns the target T2, DNA repair protein RAD52 homolog (Homo sapiens, UniProt P43351).
T2 sequence (P43351 whole entry): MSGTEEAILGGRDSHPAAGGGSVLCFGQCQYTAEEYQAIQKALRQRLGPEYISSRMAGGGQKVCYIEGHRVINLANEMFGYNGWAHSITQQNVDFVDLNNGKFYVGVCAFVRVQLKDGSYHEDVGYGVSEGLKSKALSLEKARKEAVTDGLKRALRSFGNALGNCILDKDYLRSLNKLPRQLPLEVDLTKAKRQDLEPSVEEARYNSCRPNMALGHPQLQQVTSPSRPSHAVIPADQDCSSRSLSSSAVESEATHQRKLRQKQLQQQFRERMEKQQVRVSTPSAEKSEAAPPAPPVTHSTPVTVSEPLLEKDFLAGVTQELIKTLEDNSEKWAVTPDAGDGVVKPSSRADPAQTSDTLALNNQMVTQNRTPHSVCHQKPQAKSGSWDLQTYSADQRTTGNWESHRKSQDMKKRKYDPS
Format: functional, biochemical.

In assay [3] the target is T3, Fatty acid synthase (Homo sapiens, UniProt P49327). The assay can be described thus: inhibition of human FAS-TE enzyme activity – biochemical, kinetic fluorescence intensity, dose response (AID 624326).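 Note: rate of fluorescence rise from hydrolysis of a fluorogenic O-methyl fluorescein ester substrate.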 Format: functional.
Assay [4] concerns the target T3, Fatty acid synthase. The experiment in a line: inhibition of human FAS-TE enzyme activity – biochemical, endpoint fluorescence intensity, uHTS hits, dose response (AID 624327).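 Note: fluorescence from hydrolysis of an O-methyl fluorescein acyl ester substrate by the enzyme.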 In kind it is functional.
Assay [5] in a line: HIV-1 AD8 envelope cell-cell fusion blockers – cherry-pick, dose response (AID 652062).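 Note: luciferase signal from cell-cell fusion driven by HIV-1 clade B AD8 Env; potency is for inhibitors of fusion seen as a drop in luminescence.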 In kind it is functional, cell-based.
The nature of assay [6]: blockers of HIV-1 ZM109 envelope-driven cell-cell fusion – HeLa effector, CEM target cells, luciferase, cherry-pick, dose response (AID 652058).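 Note: luciferase signal from HIV-1 Env mediated cell-cell fusion of effector and target cells.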 Format: functional, cell-based.
Assay [7] concerns the target T4, Protein skinhead-1 (Caenorhabditis elegans, UniProt P34707).
T4 sequence (P34707 whole entry): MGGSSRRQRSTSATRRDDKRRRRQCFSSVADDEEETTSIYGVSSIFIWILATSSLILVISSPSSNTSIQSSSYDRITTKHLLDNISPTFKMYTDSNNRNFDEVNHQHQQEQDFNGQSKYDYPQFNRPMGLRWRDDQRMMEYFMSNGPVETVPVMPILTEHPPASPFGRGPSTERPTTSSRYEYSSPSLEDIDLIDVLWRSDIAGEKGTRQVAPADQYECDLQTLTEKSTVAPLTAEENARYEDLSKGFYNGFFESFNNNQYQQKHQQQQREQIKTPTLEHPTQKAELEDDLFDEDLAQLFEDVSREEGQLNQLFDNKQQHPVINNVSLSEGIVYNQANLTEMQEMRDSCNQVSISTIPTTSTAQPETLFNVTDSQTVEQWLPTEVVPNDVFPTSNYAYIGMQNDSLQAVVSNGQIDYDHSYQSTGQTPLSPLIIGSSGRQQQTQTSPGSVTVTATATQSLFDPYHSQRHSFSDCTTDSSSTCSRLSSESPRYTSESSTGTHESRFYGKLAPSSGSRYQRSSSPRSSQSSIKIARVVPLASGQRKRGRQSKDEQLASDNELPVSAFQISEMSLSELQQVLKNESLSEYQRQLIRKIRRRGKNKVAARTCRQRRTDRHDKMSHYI
Format: functional.

Assay [8] deals with Cytochrome P450 2C9 (Homo sapiens, UniProt P11712).
Assay [9] can be described thus: blockers of HIV-1 envelope-mediated cell-cell fusion – cherry-pick, dose response (AID 652057). In kind it is functional, cell-based.
In assay [10] the target is T5, Rac GTPase-activating protein 1 (Homo sapiens, UniProt Q9H0H5).
T5 sequence (Q9H0H5 whole entry): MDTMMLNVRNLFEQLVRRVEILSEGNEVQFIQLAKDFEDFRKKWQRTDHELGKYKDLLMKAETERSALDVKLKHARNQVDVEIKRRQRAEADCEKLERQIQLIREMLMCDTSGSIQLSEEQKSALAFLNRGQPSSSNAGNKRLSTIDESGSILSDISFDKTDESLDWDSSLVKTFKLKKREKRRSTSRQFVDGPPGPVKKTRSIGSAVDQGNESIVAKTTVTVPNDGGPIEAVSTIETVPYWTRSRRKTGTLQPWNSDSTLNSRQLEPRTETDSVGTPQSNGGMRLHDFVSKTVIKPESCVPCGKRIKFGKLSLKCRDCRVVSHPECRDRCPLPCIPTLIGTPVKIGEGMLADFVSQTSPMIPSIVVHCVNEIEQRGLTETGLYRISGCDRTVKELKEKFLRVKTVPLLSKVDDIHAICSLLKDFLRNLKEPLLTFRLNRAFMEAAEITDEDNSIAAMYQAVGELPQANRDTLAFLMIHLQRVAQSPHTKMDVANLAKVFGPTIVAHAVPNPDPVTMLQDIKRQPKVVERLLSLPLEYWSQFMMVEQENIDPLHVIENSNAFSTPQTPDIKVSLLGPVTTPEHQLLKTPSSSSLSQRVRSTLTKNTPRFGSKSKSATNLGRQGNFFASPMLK
The experiment in a line: blockers of MgcRacGAP-driven Rac1 GTP hydrolysis – biochemical, ADP Hunter fluorescence, primary and confirmatory, confirmation (AID 624330). In kind it is functional.

Calls of active or inactive are those of the source.

One may read the AC50 as the concentration giving half of the maximal activity seen. What is called IC50 is the concentration at which inhibition is half-maximal.

T3 sequence (P49327 whole entry): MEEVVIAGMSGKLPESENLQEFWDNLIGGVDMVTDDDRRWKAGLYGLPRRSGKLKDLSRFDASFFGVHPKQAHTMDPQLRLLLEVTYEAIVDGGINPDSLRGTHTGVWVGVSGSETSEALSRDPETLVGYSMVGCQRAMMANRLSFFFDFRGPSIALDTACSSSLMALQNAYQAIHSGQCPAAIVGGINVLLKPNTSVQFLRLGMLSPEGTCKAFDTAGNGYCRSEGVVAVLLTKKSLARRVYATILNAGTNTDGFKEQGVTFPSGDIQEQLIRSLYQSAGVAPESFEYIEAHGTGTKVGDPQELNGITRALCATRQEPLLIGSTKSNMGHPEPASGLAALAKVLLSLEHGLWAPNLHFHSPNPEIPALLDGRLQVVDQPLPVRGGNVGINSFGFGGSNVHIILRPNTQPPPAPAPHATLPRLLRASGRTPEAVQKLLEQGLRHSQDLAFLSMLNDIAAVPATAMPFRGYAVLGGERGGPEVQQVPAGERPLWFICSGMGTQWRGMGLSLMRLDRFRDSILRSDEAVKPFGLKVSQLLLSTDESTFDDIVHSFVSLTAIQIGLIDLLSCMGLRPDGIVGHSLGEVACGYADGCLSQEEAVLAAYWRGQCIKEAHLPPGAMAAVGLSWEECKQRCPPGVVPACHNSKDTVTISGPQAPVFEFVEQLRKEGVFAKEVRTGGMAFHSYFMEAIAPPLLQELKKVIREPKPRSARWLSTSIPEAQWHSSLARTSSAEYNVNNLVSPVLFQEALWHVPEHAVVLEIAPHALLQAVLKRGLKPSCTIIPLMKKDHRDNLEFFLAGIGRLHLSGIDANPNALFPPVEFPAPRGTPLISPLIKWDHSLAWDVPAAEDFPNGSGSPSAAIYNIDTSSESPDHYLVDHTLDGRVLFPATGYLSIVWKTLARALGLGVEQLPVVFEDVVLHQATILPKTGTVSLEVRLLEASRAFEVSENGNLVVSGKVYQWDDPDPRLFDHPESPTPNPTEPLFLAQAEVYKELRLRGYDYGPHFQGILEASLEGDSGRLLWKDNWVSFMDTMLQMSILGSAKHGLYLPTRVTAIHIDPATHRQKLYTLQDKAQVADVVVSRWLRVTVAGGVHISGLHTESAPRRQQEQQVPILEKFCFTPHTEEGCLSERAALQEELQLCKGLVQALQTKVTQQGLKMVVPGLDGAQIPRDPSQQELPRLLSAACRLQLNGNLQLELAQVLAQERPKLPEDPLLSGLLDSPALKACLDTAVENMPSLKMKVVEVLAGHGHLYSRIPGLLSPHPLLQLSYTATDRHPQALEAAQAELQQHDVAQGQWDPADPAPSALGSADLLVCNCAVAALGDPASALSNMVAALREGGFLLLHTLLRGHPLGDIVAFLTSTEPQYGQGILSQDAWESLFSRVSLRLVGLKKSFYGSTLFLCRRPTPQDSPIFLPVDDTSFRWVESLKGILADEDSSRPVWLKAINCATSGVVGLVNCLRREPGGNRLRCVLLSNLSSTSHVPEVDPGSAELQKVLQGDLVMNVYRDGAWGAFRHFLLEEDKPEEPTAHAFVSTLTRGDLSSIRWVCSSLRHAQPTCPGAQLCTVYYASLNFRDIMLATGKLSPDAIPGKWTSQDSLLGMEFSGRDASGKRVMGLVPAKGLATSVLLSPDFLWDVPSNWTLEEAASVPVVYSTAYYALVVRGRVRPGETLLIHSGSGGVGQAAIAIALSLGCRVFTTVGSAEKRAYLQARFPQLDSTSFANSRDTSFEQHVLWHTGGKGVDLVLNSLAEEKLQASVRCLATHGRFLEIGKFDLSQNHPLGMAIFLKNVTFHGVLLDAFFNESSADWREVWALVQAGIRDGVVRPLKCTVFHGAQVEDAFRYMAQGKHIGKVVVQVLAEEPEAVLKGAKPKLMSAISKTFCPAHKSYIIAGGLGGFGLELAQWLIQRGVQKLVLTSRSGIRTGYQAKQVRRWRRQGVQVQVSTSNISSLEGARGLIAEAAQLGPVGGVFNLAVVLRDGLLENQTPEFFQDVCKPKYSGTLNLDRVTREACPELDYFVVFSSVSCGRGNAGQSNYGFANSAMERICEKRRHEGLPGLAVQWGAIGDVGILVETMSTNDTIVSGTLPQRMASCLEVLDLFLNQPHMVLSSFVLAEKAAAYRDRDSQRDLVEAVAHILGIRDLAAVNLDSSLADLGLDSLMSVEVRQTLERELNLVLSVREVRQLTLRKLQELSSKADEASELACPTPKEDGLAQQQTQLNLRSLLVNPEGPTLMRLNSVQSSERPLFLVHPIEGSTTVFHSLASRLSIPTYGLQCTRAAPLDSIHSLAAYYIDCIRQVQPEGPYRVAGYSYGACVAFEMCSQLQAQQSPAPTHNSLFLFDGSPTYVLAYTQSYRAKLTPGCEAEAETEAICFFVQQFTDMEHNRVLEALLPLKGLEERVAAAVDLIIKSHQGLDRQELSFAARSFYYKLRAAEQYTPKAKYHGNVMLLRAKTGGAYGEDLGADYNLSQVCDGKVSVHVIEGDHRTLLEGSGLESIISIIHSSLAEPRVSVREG
Sequence of Cytochrome P450 2C9 (P11712 whole entry, the tested form may be a part): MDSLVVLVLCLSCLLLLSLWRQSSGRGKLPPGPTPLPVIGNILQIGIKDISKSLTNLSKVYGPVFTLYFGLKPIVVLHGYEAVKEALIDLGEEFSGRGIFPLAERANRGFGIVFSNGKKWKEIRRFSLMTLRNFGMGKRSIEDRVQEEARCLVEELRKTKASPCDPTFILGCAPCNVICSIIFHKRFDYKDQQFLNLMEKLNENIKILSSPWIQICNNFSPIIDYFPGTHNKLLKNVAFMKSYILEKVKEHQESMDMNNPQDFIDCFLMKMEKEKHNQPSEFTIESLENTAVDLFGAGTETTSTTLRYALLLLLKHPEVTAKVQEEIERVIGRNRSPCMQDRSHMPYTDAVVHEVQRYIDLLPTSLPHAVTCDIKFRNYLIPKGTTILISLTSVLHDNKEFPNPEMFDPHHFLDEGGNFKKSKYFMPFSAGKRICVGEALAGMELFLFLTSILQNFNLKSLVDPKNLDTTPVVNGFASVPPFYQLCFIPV

Turning to `CCCCN(CC)CCCNC(=S)Nc1ccc2nc(N3CCN(C)CC3)cc(C)c2c1`, the AC50 in assay [1] is 30.8 µM (active); in assay [2], 1.95 µM (active).

As for `CN(C)CCCNC(=O)/C(=C\C=C\c1ccccc1)NC(=O)c1ccc([N+](=O)[O-])cc1`, the IC50 in assay [3] was 4.11 µM (active); in assay [4], 0.87 µM (active). As for `COc1ccc(NC(=O)COC(=O)c2cc([N+](=O)[O-])ccc2N2CCOCC2)cc1`, the figures for the IC50 in assay [3] and in assay [4] were 2.1 µM (active) and 2.92 µM (active), respectively. Take `COc1ccc(N2CCn3c2nc2c3c(=O)n(CCCc3ccccc3)c(=O)n2C)c(OC)c1`: the AC50 in assay [5] is 5.71 µM (active); in assay [6], 0.572 µM (active). For the molecule `Cc1cccc(C)c1OCC(=O)Nc1nnc(C2CCCO2)s1` (centres undefined), the IC50 in assay [7] is > 100 µM (inactive). The same measure, in the same setting: next, `CC(CCc1ccco1)NC(=O)CSc1cc(=O)n(C)c2ccccc12` (centres undefined): > 100 µM (inactive). Take `O=C(N/C(=C/c1ccccc1)C(=O)N1CCOCC1)c1ccc([N+](=O)[O-])cc1`: the IC50 is 7.55 µM (active) in assay [3] and 16.8 µM (active) in assay [4]. As for `CNC(C)C#Cc1ccc2oc3cccc(OC)c3c(=O)c2c1` (centres undefined), the AC50 in assay [1] is 24.3 µM (active). Consider `CCN(CCCNC(=O)CC(C(=O)N1CCc2ccccc21)n1ccnc1)c1cccc(C)c1` (centres undefined), for which the IC50 in assay [7] is > 100 µM (inactive). For the molecule `O=[N+]([O-])c1ccc(N2CCc3ccccc3C2)cc1`, the IC50 in assay [7] was > 100 µM (inactive). For `Clc1ccc(Cc2nc(-c3cccnc3)no2)cc1`, the AC50 in assay [8] is 28.2 µM (inconclusive). Also, in assay [7], the IC50 is 36.4 µM (active). With `CN(Cc1ccccc1)C(=O)COC(=O)c1cc(Cl)nc(Cl)c1`, the concentration for half-maximal inhibition (IC50) in assay [3] is 13.5 µM (active); in [4], 8.07 µM (active). For `O=C(COC(=O)c1cc([N+](=O)[O-])ccc1NCCO)c1ccccc1`, the IC50 in assay [3] was 8.98 µM (active); in assay [4], 8.17 µM (active). Take `Cc1cccnc1Nc1nc(-c2ccc(F)cc2)cs1`: the IC50 in [7] is 89.2 µM (inactive). As for `CCOC(=O)c1cnc2c(Cl)cccc2c1NCCCN1CCOCC1`, the AC50 in assay [1] was 32.7 µM (active).

In the case of `Cc1cc(NCCCN(C)C)n2c(nc3ccccc32)c1C#N`, the AC50 in [1] is 18.7 µM (active). As for `CCN(CC)CCn1c2ccc(Cl)cc2c2nc(C)sc21`, the AC50 in assay [1] was 22.1 µM (active); in [2], 5.39 µM (active). Take `OCCN1CCN(c2nc(-c3ccccc3O)nc3ccccc23)CC1`: the AC50 in assay [1] was 7.01 µM (active). For the molecule `Nc1sccc1C(=O)NCc1ccccc1`, in assay [7], the IC50 is > 100 µM (inactive). Regarding `C[C@H](CO)N1C[C@H](C)[C@@H](CN(C)Cc2ccncc2)Oc2cc(C3=CCCCC3)ccc2S1(=O)=O`, the AC50 was 13.4 µM (active) in assay [9] and 12.3 µM (active) in [6].

For `O=C(CCC(=O)Nc1ccc(Br)cc1)N/N=C/c1cc([N+](=O)[O-])ccc1O`, the IC50 in assay [3] is 8.73 µM (active); in [4], 12.9 µM (active). For the molecule `Oc1ccc(Nc2ccnc3cc(Cl)ccc23)cc1`, the IC50 in assay [10] was 28.1 µM (active). For the same molecule, in assay [1], the concentration at half-maximal activity (AC50) is 80.3 µM (active).
